Patent US8637045B2, “Therapy for lysosomal enzyme deficiencies” (University of Massachusetts, priority 2004, dated 2014)

What was measured:
[1] = molecular target: T1, β-glucosidase (Mus musculus, UniProt P17439); assay: Gaucher mouse model produced with conduritol beta-epoxide; format: in vivo, mice
T1 construct: from tissue; host or cells: tissues of C57/Bl mice dosed in vivo with CBE
T1 sequence (P17439 20-515): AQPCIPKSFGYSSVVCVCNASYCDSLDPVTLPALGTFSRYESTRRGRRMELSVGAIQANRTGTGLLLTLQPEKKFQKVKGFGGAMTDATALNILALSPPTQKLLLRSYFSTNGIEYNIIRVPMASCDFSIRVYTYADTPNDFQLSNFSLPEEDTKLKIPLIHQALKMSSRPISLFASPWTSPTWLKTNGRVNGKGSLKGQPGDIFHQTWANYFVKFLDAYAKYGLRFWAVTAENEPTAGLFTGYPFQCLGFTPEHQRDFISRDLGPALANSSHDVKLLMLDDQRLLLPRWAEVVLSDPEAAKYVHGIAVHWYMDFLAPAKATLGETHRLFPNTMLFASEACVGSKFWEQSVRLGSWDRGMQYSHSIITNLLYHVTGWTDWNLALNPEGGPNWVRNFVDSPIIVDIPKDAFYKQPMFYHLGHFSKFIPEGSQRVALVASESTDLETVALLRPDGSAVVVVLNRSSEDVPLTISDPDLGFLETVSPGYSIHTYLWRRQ
Description: Two mouse models of Gaucher disease were used. The first Gaucher mouse was produced by injecting C57/Bl mice with 100 mg/kg of conduritol beta-epoxide, (CBE, 7-oxabicyclo[4.1.0]heptane-2,3,4,5-tetrol), intraperitoneally daily for 3 weeks. Three weeks of treatment of 3 month old C57/Bl mice with CBE produced an approximately 50% and 500% increase in the amount of glucosylceramide in systemic tissues and brain, respectively. […] No weight or behavioral differences occurred in 3 month old treated mice. […] Expressed as percentages of total body weight there was no difference for brain, liver, and kidney, but the spleen weight was 60% of control. […] There was a 50% and 300% increase in glucocerebroside in liver tissue and brain, respectively.

[2] = tested on: S. aureus; assay: S. aureus killing by J774 murine macrophages loaded with YGP particles; format: cell-based
Description: One ml of murine macrophages, J774 (5×10^5/ml) was combined with YGP, YGP:alginate—tet or tetracycline of various concentration as summarized in Table 6, above.
The J774 cells were cultured overnight in medium (DMEM containing 10% fetal calf serum without antibiotics or glutamine). […] The microbial killing assay was set up in 96 well plates. The cultures were diluted in medium and incubated overnight to allow for metabolism and release of tet from phagocytosed YGP:alginate—tet particles. Bacterial challenge was added as indicated in Table 7 and the cultures were incubated 2 hours at 37 degrees Celsius in a CO2 incubator to permit S. aureus phagocytosis and killing by the J774 murine macrophages. After this incubation, 200 μl LB Broth (Luria-Bertani Broth: 1.0% tryptone, 0.5% yeast extract, 1.0% NaCl) was added to each culture to lyze the macrophages. Cultures were incubated at 37 degrees Celsius in an incubator to permit outgrowth of surviving S. aureus. Growth was monitored by change in pH as indicated by phenol red. The effects of YGP, YGP:alginate—tet or tetracycline were compared.

[3] = 3 month old C57/Bl mice, 100 mg/kg intraperitoneally daily for 3 weeks
[4] = 1 day old infant C57/Bl mice, 100 mg/kg IP daily for 3 weeks

**Q.** Which results are given for `OC1C(O)C(O)C2OC2C1O` (stereo not shown) [CBE, 7-oxabicyclo[4.1.0]heptane-2,3,4,5-tetrol]?
**A.** increase in the amount of glucosylceramide in brain [1, 3]: ~500%; increase in the amount of glucosylceramide in systemic tissues [1, 3]: approximately 50%; increase in glucocerebroside in brain [1, 4]: 300%; increase in glucocerebroside in liver tissue [1, 4]: 50%; spleen weight (as percentage of total body weight) [1, 4]: 60 % of control; β-glucosidase activity ([1]; C57/Bl mice, 100 mg/kg intraperitoneally daily for 3 weeks): drastic reduction

**Q.** Which “S. aureus Killed” value ([2]; with J774, 1.25 μg/ml) does the source give for `CN(C)[C@@H]1C(O)=C(C(N)=O)C(=O)[C@@]2(O)C(O)=C3C(=O)c4c(O)cccc4[C@@](C)(O)[C@H]3C[C@@H]12` [tet, tetracycline] here?
**A.** The value was 1 × 10^6.

**Q.** And the “Fold Increased Killing” value ([2]; with J774, 2.5 μg/ml)?
**A.** The value was 3.3.

**Q.** And the “S. aureus Killed” value ([2]; with J774, 2.5 μg/ml)?
**A.** Its value is 1 × 10^7.

**Q.** And the “S. aureus Killed” value ([2]; with J774, 5 μg/ml)?
**A.** Its value is >1 × 10^8.

**Q.** And the “S. aureus Killed” value ([2]; with J774, 10 μg/ml)?
**A.** The value was >1 × 10^8.

**Q.** And the “Fold Increased Killing” value ([2]; without J774, 1.25 μg/ml)?
**A.** Its value is 1.

**Q.** What about the “S. aureus Killed” value ([2]; without J774, 1.25 μg/ml) of the same molecule?
**A.** Its value is 1 × 10^6.

**Q.** What about the “S. aureus Killed” value ([2]; without J774, 2.5 μg/ml) of the same molecule?
**A.** Its value is 3.3 × 10^6.

**Q.** And the “S. aureus Killed” value ([2]; without J774, 5 μg/ml)?
**A.** Its value is >1 × 10^8.

**Q.** And the “S. aureus Killed” value ([2]; without J774, 10 μg/ml)?
**A.** The value was >1 × 10^8.
